One test concerns the target KRAS G13D (Homo sapiens (Human), UniProt P01116+P62937, G13D). Put plainly: Ras-Raf (BRAF RBD) disruption / FRET / MOA assay, KRAS G13D. The note with it: read-out: IC50* KRAS G13D FRET data. It is filed as biochemical. The method, boiled down:
(§1)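 Ternary complex formation (Ras–compound–cyclophilin A) displacing BRAF RBD, monitored by TR-FRET. Three hours at 25° C with compound (top 30 μM final), then 1.5 h with the labelled antibodies. Lower ratio than DMSO indicates disruption; IC50 reported.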

The next test concerns the target KRAS G12V (Homo sapiens (Human), UniProt P01116+P62937, G12V). The test is described as follows: Ras-Raf (BRAF RBD) disruption / FRET / MOA assay, KRAS G12V. It is filed as biochemical. The note with it: read-out: IC50* KRAS G12V FRET data. The method in brief: as §1
The target of another test is NRAS Q61R (Homo sapiens (Human), UniProt P01111+P62937, Q61R). Put plainly: Ras-Raf (BRAF RBD) disruption / FRET / MOA assay, NRAS Q61R. It counts as biochemical. Conditions: NRAS Q61R; Ras-Raf disruption/FRET/MOA assay; read-out: IC50* NRAS Q61R FRET data. The method, boiled down: (§2)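 Compounds were tested as a 10-point 3-fold dilution series from 30 μM final for their ability to drive ternary complex formation between nucleotide-loaded Ras and cyclophilin A, displacing the BRAF RBD. After 3 h at 25° C., anti-His Eu-W1024 (10 nM) and anti-GST allophycocyanin (50 nM) were added for 1.5 h. A TR-FRET ratio decrease versus DMSO gave IC50.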

A further test has as its target NRAS WT (Homo sapiens (Human), UniProt P01111+P62937). The test is described as follows: Ras-Raf (BRAF RBD) disruption / FRET / MOA assay, NRAS WT. The note with it: read-out: IC50* NRAS WT FRET data. It counts as biochemical. The method, boiled down: as §2
The target in a further test is KRAS G12D (Homo sapiens (Human), UniProt P01116+P62937, G12D). Put plainly: Ras-Raf (BRAF RBD) disruption / FRET / MOA assay, KRAS G12D. It counts as biochemical. The note with it: Ras-Raf disruption/FRET/MOA assay; class symbols; read-out: KRAS G12D FRET data IC50. The method in brief:
as §1

For another test, the target named is KRAS G12S (Homo sapiens (Human), UniProt P01116+P62937, G12S). The test is described as follows: Ras-Raf (BRAF RBD) disruption / FRET / MOA assay, KRAS G12S. It counts as biochemical. The note with it: Ras-Raf disruption/FRET/MOA assay; class symbols; read-out: KRAS G12S FRET data IC50. The method, boiled down:
as §1

A further test deals with NCI-H358 (K-Ras G12C). Put plainly: CellTiter-Glo cell viability assay, NCI-H358. It is filed as cell-based, human. The note with it: Homo sapiens, NCI-H358, 120 h, NCI-H358, 5-day treatment; class symbols; read-out: Additional H358 Cell Viability assay data (K-Ras G12C, IC50). The method in brief:
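Viability measured by CellTiter-Glo luminescence on day 5 following direct addition of compound to plated cells. Values expressed as percent of mean DMSO signal; curves fitted with a four-parameter logistic model.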

For the next test, the target named is K-Ras G13C (Homo sapiens (Human), UniProt P01116+P62937, G13C). The test is described as follows: Ras-Raf (BRAF RBD) disruption / FRET / MOA assay, KRAS G13C. It counts as biochemical. Conditions: KRAS G13C; Ras-Raf disruption/FRET/MOA assay; read-out: IC50* KRAS G13C FRET data. The method in brief: as §1
For a further test, the target named is NRAS Q61K (Homo sapiens (Human), UniProt P01111+P62937, Q61K). Put plainly: Ras-Raf (BRAF RBD) disruption / FRET / MOA assay, NRAS Q61K. It is filed as biochemical. Conditions: NRAS Q61K; Ras-Raf disruption/FRET/MOA assay; read-out: IC50* NRAS Q61K FRET data. The method in brief:
as §2

Another test concerns the target KRAS WT (Homo sapiens (Human), UniProt P01116+P62937). The test is described as follows: Ras-Raf (BRAF RBD) disruption / FRET / MOA assay, KRAS WT. It is filed as biochemical. Conditions: read-out: IC50* KRAS WT FRET data. The method in brief: as §1

Structures are written as SMILES. A value given as a limit tells only on which side of the number the result lay.

Chain of KRAS WT (P01116-2 other isoform, or with tags, fused parts or gaps): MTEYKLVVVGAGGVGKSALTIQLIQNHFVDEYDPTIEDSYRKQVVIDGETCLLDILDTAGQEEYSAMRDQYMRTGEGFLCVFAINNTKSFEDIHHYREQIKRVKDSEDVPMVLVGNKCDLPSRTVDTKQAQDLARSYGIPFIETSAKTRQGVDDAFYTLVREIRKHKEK
Chain of KRAS WT (P62937 whole entry): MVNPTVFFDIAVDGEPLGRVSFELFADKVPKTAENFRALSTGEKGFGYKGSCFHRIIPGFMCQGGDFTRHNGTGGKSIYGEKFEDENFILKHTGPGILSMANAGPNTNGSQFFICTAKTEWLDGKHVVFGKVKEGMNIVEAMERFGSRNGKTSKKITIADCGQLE
Chain of NRAS Q61R (P01111 whole entry Q61R): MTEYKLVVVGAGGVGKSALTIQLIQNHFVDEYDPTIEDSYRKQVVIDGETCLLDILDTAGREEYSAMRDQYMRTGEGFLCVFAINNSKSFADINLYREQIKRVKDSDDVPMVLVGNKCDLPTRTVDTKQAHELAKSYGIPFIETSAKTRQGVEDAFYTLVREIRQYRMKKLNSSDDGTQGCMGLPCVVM
Chain of NRAS Q61R (P62937 whole entry): as the sequence (P62937 whole entry) above
Chain of NRAS WT (P01111 whole entry): as the sequence (P01111 whole entry Q61R) above, with R61Q counted along it
Chain of NRAS WT (P62937 whole entry): as the sequence (P62937 whole entry) above
Chain of KRAS G12V (P01116-2 other isoform, or with tags, fused parts or gaps G12V): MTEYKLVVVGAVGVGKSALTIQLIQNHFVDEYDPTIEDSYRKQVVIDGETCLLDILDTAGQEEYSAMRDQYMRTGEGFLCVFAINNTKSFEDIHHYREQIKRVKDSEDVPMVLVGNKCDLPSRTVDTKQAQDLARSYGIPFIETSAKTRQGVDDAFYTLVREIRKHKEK
Chain of KRAS G12V (P62937 whole entry): as the sequence (P62937 whole entry) above
Chain of NRAS Q61K (P01111 whole entry Q61K): as the sequence (P01111 whole entry Q61R) above, with R61K counted along it
Chain of NRAS Q61K (P62937 whole entry): as the sequence (P62937 whole entry) above
Chain of KRAS G12S (P01116-2 other isoform, or with tags, fused parts or gaps G12S): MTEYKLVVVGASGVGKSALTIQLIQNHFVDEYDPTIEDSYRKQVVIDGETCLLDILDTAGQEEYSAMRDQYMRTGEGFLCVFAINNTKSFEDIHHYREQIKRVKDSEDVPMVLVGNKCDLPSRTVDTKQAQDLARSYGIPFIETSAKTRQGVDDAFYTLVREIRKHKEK
Chain of KRAS G12S (P62937 whole entry): as the sequence (P62937 whole entry) above
Chain of K-Ras G13C (P01116-2 other isoform, or with tags, fused parts or gaps G13C): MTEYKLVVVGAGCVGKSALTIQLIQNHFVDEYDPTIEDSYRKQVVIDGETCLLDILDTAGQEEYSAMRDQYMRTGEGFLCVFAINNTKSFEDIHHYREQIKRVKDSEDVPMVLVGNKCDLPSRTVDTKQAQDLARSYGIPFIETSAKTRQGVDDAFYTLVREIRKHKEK
Chain of K-Ras G13C (P62937 whole entry): as the sequence (P62937 whole entry) above
Chain of KRAS G12D (P01116-2 other isoform, or with tags, fused parts or gaps G12D): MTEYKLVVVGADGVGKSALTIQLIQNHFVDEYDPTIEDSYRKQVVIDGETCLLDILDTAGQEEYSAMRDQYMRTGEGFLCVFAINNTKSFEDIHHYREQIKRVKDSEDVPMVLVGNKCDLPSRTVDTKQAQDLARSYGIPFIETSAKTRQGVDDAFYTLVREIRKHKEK
Chain of KRAS G12D (P62937 whole entry): as the sequence (P62937 whole entry) above
Chain of KRAS G13D (P01116-2 other isoform, or with tags, fused parts or gaps G13D): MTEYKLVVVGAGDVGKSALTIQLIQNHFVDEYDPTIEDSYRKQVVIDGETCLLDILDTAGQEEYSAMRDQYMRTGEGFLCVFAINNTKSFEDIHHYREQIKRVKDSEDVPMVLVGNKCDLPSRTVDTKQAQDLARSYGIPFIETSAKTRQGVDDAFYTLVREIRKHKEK
Chain of KRAS G13D (P62937 whole entry): as the sequence (P62937 whole entry) above

As usually defined, the IC50 is the concentration needed to halve the response being measured. As for `CCn1c(-c2cccnc2[C@H](C)OC)c2c3cc(ccc31)-c1csc(n1)C[C@H](NC(=O)[C@H](C(C)C)N(C)C(=O)N1CCC13CN(C(=O)/C=C/CN1CCOCC1)C3)C(=O)N1CCC[C@H](N1)C(=O)OCC(C)(C)C2` (atropisomer, axis not shown) [Example A611], the IC50 lay in the range of 0.1 to 1 µM at KRAS G13D; 0.1 to 1 µM at KRAS G12V; 0.01 to 0.1 µM at NRAS Q61R; 0.1 to 1 µM at NRAS WT; 1 to 10 µM at KRAS G12D; 0.1 to 1 µM at KRAS G12S. Moreover, the IC50 with NCI-H358 (K-Ras G12C) was 0.01 to 0.1 µM; at K-Ras G13C, 0.1 to 1 µM; at NRAS Q61K, 0.01 to 0.1 µM; on KRAS WT it was 0.1 to 1 µM.
As to `CCn1c(-c2cccnc2[C@H](C)OC)c2c3cc(ccc31)-c1cccc(c1)C[C@H](NC(=O)[C@@H](COC1CN(C(=O)C#CC(C)(C)N(C)C3CC3)C1)C(C)C)C(=O)N1CCC[C@H](N1)C(=O)OCC(C)(C)C2` (atropisomer, axis not shown) [Example A613], the IC50 on KRAS G13D, on KRAS G12V, on NRAS Q61R, at NRAS WT, on KRAS G12D and on KRAS G12S was greater than 10 µM throughout. Further, the IC50 in the test with NCI-H358 (K-Ras G12C) is 0.01 to 0.1 µM; at K-Ras G13C it was greater than 10 µM; at NRAS Q61K it was greater than 10 µM; on KRAS WT it was greater than 10 µM.
Take `CCn1c(-c2cccnc2[C@H](C)OC)c2c3cc(ccc31)N1CCC[C@@H](C[C@H](NC(=O)[C@H](C(C)C)N(C)C(=O)[C@H]3CCN(C(=O)C#CC(C)(C)N4CCC4)C3)C(=O)N3CCC[C@H](N3)C(=O)OCC(C)(C)C2)C1` (atropisomer, axis not shown) [Example A617]: the IC50 on KRAS G13D, at KRAS G12V, at NRAS Q61R, at NRAS WT, at KRAS G12D and on KRAS G12S was greater than 10 µM throughout. Moreover, the IC50 with NCI-H358 (K-Ras G12C) was 0.01 to 0.1 µM; on K-Ras G13C, greater than 10 µM; at NRAS Q61K it was greater than 10 µM; at KRAS WT, greater than 10 µM.
Take `C=CC(=O)N1CCC[C@H]2CN(C(=O)N(C)[C@H](C(=O)N[C@H]3Cc4nc(cs4)-c4ccc5c(c4)c(c(-c4cccnc4[C@H](C)OC)n5CC)CC(C)(C)COC(=O)[C@@H]4CCCN(N4)C3=O)C(C)C)C[C@H]21` (atropisomer, axis not shown) [Example A618]: the half-maximal inhibitory concentration (IC50) at KRAS G13D is 1 to 10 µM; on KRAS G12V, 0.1 to 1 µM; at NRAS Q61R, 0.1 to 1 µM; on NRAS WT it was 0.1 to 1 µM; on KRAS G12D it was 1 to 10 µM; on KRAS G12S, 0.1 to 1 µM. Besides, the IC50 in the test with NCI-H358 (K-Ras G12C) fell in the range of 0.01 to 0.1 µM; at K-Ras G13C, 0.1 to 1 µM; at NRAS Q61K, 0.1 to 1 µM; on KRAS WT, 0.1 to 1 µM.
Take `CCn1c(-c2cccnc2[C@H](C)OC)c2c3cc(ccc31)-c1csc(n1)C[C@H](NC(=O)[C@H](C(C)C)N(C)C(=O)N1C[C@@H]3CN(C(=O)C#CC(C)(C)N(C)C)CC[C@@H]31)C(=O)N1CCC[C@H](N1)C(=O)OCC(C)(C)C2` (atropisomer, axis not shown) [Example A625]: the IC50 on KRAS G13D was 1 to 10 µM; at KRAS G12V it was 0.1 to 1 µM; on NRAS Q61R it was 0.1 to 1 µM; at NRAS WT it was 0.1 to 1 µM; at KRAS G12D it was 1 to 10 µM; on KRAS G12S it was 0.1 to 1 µM. The IC50 fell in the range of 0.01 to 0.1 µM in the test on NCI-H358 (K-Ras G12C), 0.1 to 1 µM at K-Ras G13C, 0.1 to 1 µM on NRAS Q61K and 0.1 to 1 µM at KRAS WT.
As for `C=CC(=O)N(C)[C@H]1CN(C(=O)N(C)[C@H](C(=O)N[C@H]2Cc3nc(cs3)-c3ccc4c(c3)c(c(-c3cccnc3[C@H](C)OC)n4CC)CC(C)(C)COC(=O)[C@@H]3CCCN(N3)C2=O)C(C)C)C[C@@H]1F` (atropisomer, axis not shown) [Example A632], the IC50 on KRAS G13D was 1 to 10 µM; on KRAS G12V, 0.1 to 1 µM; on NRAS Q61R, 0.1 to 1 µM; at NRAS WT it was 0.1 to 1 µM; on KRAS G12D, 1 to 10 µM; at KRAS G12S, 0.1 to 1 µM. Besides, the IC50 in the test with NCI-H358 (K-Ras G12C) was in the range of 0.1 to 1 µM; at K-Ras G13C it was 0.01 to 0.1 µM; at NRAS Q61K it was 0.1 to 1 µM; at KRAS WT it was 0.1 to 1 µM.
